Experiment [1] deals with T1, proMMP9(20-445;ΔFnII) (SEQ ID NO:6) (Homo sapiens, UniProt P14780, DEL216-390).
T1 construct: start methionine (N); made in house; host or cells: E. coli BL21(DE3) RIL
T1 sequence (P14780 with tags, fused parts or gaps DEL216-390): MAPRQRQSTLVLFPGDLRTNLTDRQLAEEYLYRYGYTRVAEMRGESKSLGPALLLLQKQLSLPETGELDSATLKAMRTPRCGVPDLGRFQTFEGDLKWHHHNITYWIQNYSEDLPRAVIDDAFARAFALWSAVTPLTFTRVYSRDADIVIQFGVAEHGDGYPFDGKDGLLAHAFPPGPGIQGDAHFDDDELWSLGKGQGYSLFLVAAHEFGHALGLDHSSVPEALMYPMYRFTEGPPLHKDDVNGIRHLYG
Description: ThermoFluor binding assay with proMMP9(20-445;ΔFnII). Here is the method:
(§1) The ThermoFluor® (TF) assay is a 384-well plate-based binding assay that measures thermal stability of proteins (Biomol Screen 2001, 6, 429-40; Biochemistry 2005, 44, 5258-66). The experiments were carried out using instruments available from Johnson & Johnson Pharmaceutical Research & Development, LLC. TF dye used in all experiments was […] (1,8-ANS) (Invitrogen: A-47).
(§2) Compounds were arranged in a pre-dispensed plate (Greiner Bio-one: 781280), wherein compounds were serially diluted in 100% DMSO across 11 columns within a series. Columns 12 and 24 were used as DMSO reference and contained no compound. For multiple compound concentration-response experiments, the compound aliquots ([…]) were robotically predispensed directly into black 384-well polypropylene PCR microplates (Abgene: TF-0384/k) using a Cartesian Hummingbird liquid handler (DigiLab, Holliston, Mass.). Following compound dispense, protein and dye solutions were added to achieve the final assay volume of 3 μL. The assay solutions were overlayed with 1 μL of silicone oil (Fluka, type DC 200: 85411) to prevent evaporation.
(§3) Assay plates were robotically loaded onto a thermostatically controlled PCR-type thermal block and then heated from 40 to 90° C. at a ramp-rate of 1° C./min for all experiments. Fluorescence was measured by continuous illumination with UV light (Hamamatsu LC6) supplied via fiber optics and filtered through a band-pass filter (380-400 nm; >60D cutoff). Fluorescence emission of the entire 384-well plate was detected by measuring light intensity using a CCD camera (Sensys, Roper Scientific) filtered to detect 500±25 nm, resulting in simultaneous and independent readings of all 384 wells. A single image with 20-sec exposure time was collected at each temperature, and the sum of the pixel intensity in a given area of the assay plate was recorded vs temperature and fit to standard equations to yield the Tm (J Biomol Screen 2001, 6, 429-40).
(§4) Thermodynamic parameters necessary for fitting compound binding for each proMMP were estimated by differential scanning calorimetry (DSC) and from ThermoFluor® data. The heat capacity of unfolding for each protein was estimated from the molecular weight and from ThermoFluor® dosing data.
ThermoFluor® with proMMP9(20-445;ΔFnII) (SEQ ID NO:6)
The protein sample preparations included a desalting buffer exchange step via a PD-10 gravity column (GE Healthcare). The desalting buffer exchange was performed prior to diluting the protein to the final assay concentration of 2.8 μM proMMP9(20-445;ΔFnII) (SEQ ID NO:6). The concentration of proMMP9(20-445;ΔFnII) (SEQ ID NO:6) was determined spectrophotometrically based on a calculated extinction coefficient of ε280=39880 M^−1cm^−1, a calculated molecular weight of 28.2 kDa, and calculated pI of 5.5. ThermoFluor® reference conditions were define as follows: 80 μg/mL (2.8 μM) proMMP9(20-445;ΔFnII) (SEQ ID NO:6), 50 μM 1,8-ANS, pH 7.0 Buffer (50 mM HEPES pH 7.0, 100 mM NaCl, 0.001% Tween-20, 2.5 mM MgCl2, 300 μM CaCl2). The thermodynamic parameters for proMMP9(20-445;ΔFnII) (SEQ ID NO:6) are as follows: Tm (° C.)=72 (+/−0.1), ΔUH(Tm) (cal mol^−1)=160000(+/−5000), ΔUS(Tm) (cal mol^−1 K^−1)=434, ΔUCp (cal mol^−1 K^−1)=2400.
On the technique in general: Differential scanning fluorimetry follows unfolding on heating by fluorescence.

The target in experiment [2] is T2, proMMP9(67-444;ΔFnII) (SEQ ID NO:5) (Homo sapiens, UniProt P14780, DEL216-390).
T2 construct: start methionine (N); made in house; host or cells: E. coli BL21(DE3) RIL
T2 sequence (P14780 with tags, fused parts or gaps DEL216-390): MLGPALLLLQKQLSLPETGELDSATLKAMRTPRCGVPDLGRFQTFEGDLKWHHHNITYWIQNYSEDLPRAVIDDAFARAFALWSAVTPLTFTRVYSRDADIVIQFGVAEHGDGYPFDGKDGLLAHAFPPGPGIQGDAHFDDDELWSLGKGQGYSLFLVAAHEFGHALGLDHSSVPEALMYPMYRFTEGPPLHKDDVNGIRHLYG
Description: ThermoFluor binding assay with proMMP9(67-444;ΔFnII). Here is the method:
as §1, §2, §3, §4
ThermoFluor® with proMMP9(67-444;ΔFnII) (SEQ ID NO:5)
The protein sample preparations had to include a desalting buffer exchange step via a PD-10 gravity column (GE Healthcare). The desalting buffer exchange was performed prior to diluting the protein to the final assay concentration of 3.5 μM proMMP9(67-444;ΔFnII) (SEQ ID NO:5). The concentration of proMMP9(67-444;ΔFnII) (SEQ ID NO:5) was determined spectrophotometrically based on a calculated extinction coefficient of ε280=33900 M^−1cm^−1, a calculated molecular weight of 22.6 kDa, and calculated pI of 5.20. ThermoFluor® reference conditions were defined as follows: 80 μg/mL (3.5 μM) proMMP9(67-444;ΔFnII) (SEQ ID NO:5), 50 μM 1,8-ANS, pH 7.0 Buffer (50 mM HEPES pH 7.0, 100 mM NaCl, 0.001% Tween-20, 2.5 mM MgCl2, 300 μM CaCl2). The thermodynamic parameters for proMMP9(67-444;ΔFnII) (SEQ ID NO:5) are as follows: Tm (° C.)=63 (+/−0.1), ΔUH(Tm) (cal mol^−1)=105000(+/−5000), ΔUS(Tm) (cal mol^−1 K^−1)=[…], ΔUCp (cal mol^−1 K^−1)=2000.

In experiment [3] the target is T3, full-length proMMP9(1-707) (SEQ ID NO:1), activation by catalytic MMP3 (Homo sapiens, UniProt P14780, R574P).
T3 construct: made in house; host or cells: HEK293 (proMMP9, secreted); E. coli (MMP3)
Description: proMMP9/MMP3 P126 Activation Assay. Type of experiment: biochemical. Here is the method: proMMP9/MMP3 P126 Activation Assay
The reaction volume was 50 μL. […] Reactivity of residual MMP3 towards P-126 substrate was minimal under these conditions.

As a reminder, the Kd is the concentration at which binding is half-saturated. A lower Kd goes with tighter binding. What is called IC50 is the concentration at which inhibition is half-maximal. Lower therefore signals greater potency.

Each structure is given as a SMILES string. Structures can show the parent of a compound that is named as a salt.

T3 sequence (P14780 20-707 R574P): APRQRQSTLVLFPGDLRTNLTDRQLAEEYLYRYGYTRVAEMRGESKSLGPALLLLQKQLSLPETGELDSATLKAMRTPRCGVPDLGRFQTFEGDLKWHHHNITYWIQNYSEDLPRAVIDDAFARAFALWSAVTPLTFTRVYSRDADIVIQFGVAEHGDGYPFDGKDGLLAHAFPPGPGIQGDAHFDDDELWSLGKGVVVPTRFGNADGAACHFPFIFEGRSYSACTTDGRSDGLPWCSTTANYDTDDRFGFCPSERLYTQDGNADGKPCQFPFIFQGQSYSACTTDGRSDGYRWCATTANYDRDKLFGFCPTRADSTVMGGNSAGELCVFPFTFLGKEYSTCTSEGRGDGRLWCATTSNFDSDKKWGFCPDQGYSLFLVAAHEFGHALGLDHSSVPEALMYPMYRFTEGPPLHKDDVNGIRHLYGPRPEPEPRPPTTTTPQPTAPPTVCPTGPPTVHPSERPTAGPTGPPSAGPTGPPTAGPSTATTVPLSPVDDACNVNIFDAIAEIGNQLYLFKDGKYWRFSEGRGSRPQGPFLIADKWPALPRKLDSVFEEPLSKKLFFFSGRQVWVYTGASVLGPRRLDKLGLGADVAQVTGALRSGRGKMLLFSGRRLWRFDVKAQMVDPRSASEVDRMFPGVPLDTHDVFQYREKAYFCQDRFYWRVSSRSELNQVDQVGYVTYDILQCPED

As for `COc1cc(C(N)=O)ccc1Nc1nc(-c2cccnc2)cs1` [Example 6, 3-Methoxy-4-(4-pyridin-3-yl-thiazol-2-ylamino)-benzamide], the Kd stood at 70000 nM in experiment [1] and 11000 nM in experiment [2]. The IC50 in experiment [3] is 11000 nM.

For the compound `COc1cc(C)c(C(N)=O)cc1Nc1nc(-c2ccc(N3CCN(C)CC3)nc2)cs1` [Example 7, 4-Methoxy-2-methyl-5-{4-[6-(4-methyl-piperazin-1-yl)-pyridin-3-yl]-thiazol-2-ylamino}-benzamide.TFA], the Kd was 1200 nM in experiment [1] and 3900 nM in experiment [2]. This compound also showed an IC50 in experiment [3] of 2400 nM.

In the case of `CC(C)Cc1ccc(C(N)=O)cc1Nc1nc(-c2ccc(N3CCN(C)CC3)nc2)cs1` [Example 8, 4-Isobutyl-3-{4-[6-(4-methyl-piperazin-1-yl)-pyridin-3-yl]-thiazol-2-ylamino}-benzamide.TFA], the Kd in experiment [1] worked out at 370 nM; in experiment [2], 2900 nM. Besides, the IC50 in experiment [3] worked out at 1800 nM.

In the case of `CC(C)Oc1ccc(S(C)(=O)=O)cc1Nc1nc(-c2cccnc2)cs1` [Example 10, (2-Isopropoxy-5-methanesulfonyl-phenyl)-(4-pyridin-3-yl-thiazol-2-yl)-amine.TFA], the dissociation constant Kd in experiment [1] was 660 nM; in experiment [2] it was 3500 nM. For the same compound, the IC50 in experiment [3] came to 2600 nM.

For `CCS(=O)(=O)c1ccc(OC)c(Nc2nc(-c3cccnc3)cs2)c1` [Example 11, (5-Ethanesulfonyl-2-methoxy-phenyl)-(4-pyridin-3-yl-thiazol-2-yl)-amine.TFA], the results for the equilibrium dissociation constant (Kd) in experiment [1] and in experiment [2] were 5900 nM and 16000 nM, respectively.

In the case of `CC(C)Oc1ccc(C#N)cc1Nc1nc(-c2cccnc2)cs1` [Example 16, 4-Isopropoxy-3-(4-pyridin-3-yl-thiazol-2-ylamino)-benzonitrile.HBr], the Kd was 20000 nM in experiment [1] and 2900 nM in experiment [2]. In experiment [3], this compound came in with an IC50 of 3200 nM.

As to `CC(C)Oc1ccc(S(N)(=O)=O)cc1Nc1nc(-c2ccc(N3CCn4ccnc4C3)nc2)cs1` [Example 82, 3-((4-(6-(5,6-Dihydroimidazo[1,2-a]pyrazin-7(8H)-yl)pyridin-3-yl)thiazol-2-yl)amino)-4-isopropoxybenzenesulfonamide.TFA], binding in experiment [1] was characterised by a dissociation constant (Kd) of 99 nM. The compound further yielded an IC50 in experiment [3] of 370 nM.

In experiment [1], `CC(C)Oc1ccc(S(N)(=O)=O)cc1Nc1nc(-c2ccc(N3CCN(S(C)(=O)=O)CC3)nc2)cs1` [Example 83, 4-Isopropoxy-3-((4-(6-(4-(methylsulfonyl)piperazin-1-yl)pyridin-3-yl)thiazol-2-yl)amino)benzenesulfonamide.TFA] showed a Kd of 310 nM. Moreover, it took 140 nM to reach half-maximal inhibition in experiment [3] (IC50).

`CC(C)Oc1ccc(S(N)(=O)=O)cc1Nc1nc(-c2ccc(C(=O)NC3CN4CCC3CC4)nc2)cs1` (stereo not drawn) [Example 86, 5-(2-((2-Isopropoxy-5-sulfamoylphenyl)amino)thiazol-4-yl)-N-(1-azabicyclo[2.2.2]octan-3-yl)picolinamide.TFA]: in experiment [1], binding was put at a Kd of 460 nM. In addition, the IC50 in experiment [3] is 400 nM.

In experiment [1], `CCOC(=O)CCNC(=O)c1ccc(-c2csc(Nc3cc(S(N)(=O)=O)ccc3OC(C)C)n2)cn1` [Example 87, Ethyl 3-(5-(2-((2-isopropoxy-5-sulfamoylphenyl)amino)thiazol-4-yl)picolinamido)propanoate.TFA] had a dissociation constant (Kd) of 360 nM. The same compound came in with an IC50 in experiment [3] of approximately 2000 nM.

On to `CC(C)Oc1ccc(S(N)(=O)=O)cc1Nc1nc(-c2ccc(C(=O)NC3CCN(C(C)C)CC3)nc2)cs1` [Example 88, 5-(2-((2-Isopropoxy-5-sulfamoylphenyl)amino)thiazol-4-yl)-N-(1-isopropylpiperidin-4-yl)picolinamide.TFA], for which binding in experiment [1] was put at a Kd of 260 nM. In experiment [3], this compound had an IC50 of 330 nM.

In experiment [1], `CC(C)Oc1ccc(S(N)(=O)=O)cc1Nc1nc(-c2ccc(C(=O)NC3CCCN(C)C3)nc2)cs1` (stereo not drawn) [Example 89, 5-(2-((2-Isopropoxy-5-sulfamoylphenyl)amino)thiazol-4-yl)-N-(1-methylpiperidin-3-yl)picolinamide.TFA] returned an equilibrium dissociation constant (Kd) of 360 nM. Further, in experiment [3], the IC50 came out at 350 nM.

As to `COCCNC(=O)c1ccc(-c2csc(Nc3cc(S(N)(=O)=O)ccc3OC(C)C)n2)cn1` [Example 90, 5-(2-((2-Isopropoxy-5-sulfamoylphenyl)amino)thiazol-4-yl)-N-(2-methoxyethyl)picolinamide.TFA], the affinity in experiment [1], expressed as Kd, was 970 nM. Half-maximal inhibition in experiment [3] (IC50) required 1700 nM.

`CC(C)Oc1ccc(S(N)(=O)=O)cc1Nc1nc(-c2ccc(C(=O)NCC3CCOCC3)nc2)cs1` [Example 91, 5-(2-((2-Isopropoxy-5-sulfamoylphenyl)amino)thiazol-4-yl)-N-((tetrahydro-2H-pyran-4-yl)methyl)picolinamide.TFA] registered a Kd in experiment [1] of 2400 nM. Further, the IC50 in experiment [3] came to 640 nM.

In experiment [1], `COCCCN(C)c1ccc(-c2csc(Nc3cc(S(N)(=O)=O)ccc3OC(C)C)n2)cn1` [Example 92, 4-Isopropoxy-3-((4-(6-((3-methoxypropyl)(methyl)amino)pyridin-3-yl)thiazol-2-yl)amino)benzenesulfonamide.TFA] yielded a Kd of 450 nM. The compound further displayed an IC50 in experiment [3] of 230 nM.

As for `CC(C)Oc1ccc(S(N)(=O)=O)cc1Nc1nc(-c2ccc(C(=O)NC3CCOCC3)nc2)cs1` [Example 96, 5-(2-((2-Isopropoxy-5-sulfamoylphenyl)amino)thiazol-4-yl)-N-(tetrahydro-2H-pyran-4-yl)picolinamide.TFA], the Kd in experiment [1] came out at 1900 nM. The same compound returned an IC50 in experiment [3] of 590 nM.

For the compound `COC(=O)c1ccc(-c2csc(Nc3cc(S(N)(=O)=O)ccc3OC(C)C)n2)cn1` [Intermediate 12, 5-[2-(2-Isopropoxy-5-sulfamoyl-phenylamino)-thiazol-4-yl]-pyridine-2-carboxylic acid methyl ester.TsOH], in experiment [2], the affinity, expressed as Kd, was 410 nM. In addition, the IC50 in experiment [3] was more than 20000 nM.
